Test results taken from publication PMC6345774, “Kinetic and thermodynamic effects of phosphorylation on p53 binding to MDM2” (Scientific Reports, 2019).

What was measured:
[1] = molecular target: T1, human MDM2 (residues 2–125) (Homo sapiens, UniProt Q00987); assay: Stopped-flow fluorescence kinetics of p53-peptide binding to MDM2; settings: 15 °C; for kon / koff: stopped-flow Trp fluorescence, 50 mM Tris-HCl pH 8.0, 250 mM NaCl, 0.5 mM TCEP, peptide 0.125 μM, ± fitting error; for kon: MDM2 1–3 μM, pseudo-first order, slope, read-out: kon 10^6; for koff: y-axis intercept of pseudo-first-order plot
T1 construct: human MDM2 (residues 2–125); made in house; host or cells: E. coli BL21 (DE3)
Protocol: (§1) Expression and purification of human MDM2 (residues 2–125) was carried out as described[23] in BL21 (DE3) cells. […] Protein concentration was determined from the absorbance of its seven Tyr residues.
The kinetics of the MDM2/p53-peptide interaction was measured at 15 °C using an Applied Photophysics stopped-flow fluorimeter in the same buffer as that used in the equilibrium fluorescence experiments. The experimental procedure has been described previously. Association kinetics was measured under pseudo-first order conditions, by keeping the MDM2 concentration in excess of that of the peptide. […] Excitation wavelength was 280 nm with a cut-off filter of 315 nm on the emission side. The slit widths were 10 nm for excitation and emission.
At each MDM2 concentration a minimum of six traces were acquired; and the fitting in all cases for all peptides was carried out with the averaging of at least four traces. The averaged trace was always fitted to a single exponential function, which yielded, kobs. Fitting to a single exponential curve was carried out by using Kaleidagraph (Synergy Software); reported errors in kobs are from the exponential fitting. The dissociation (koff) and association (kon) rate constants were obtained from the straight line: kobs=kon×[MDM2]+koff.
Errors in both rates were from the linear fitting; the errors were always larger for koff due to the extrapolation to the y-axis intercept.

[2] = molecular target: T1, human MDM2 (residues 2–125); assay: Equilibrium fluorescence titration of p53-peptides and MDM2; assay type: binding; settings: fluorescence at 315 nm, excitation 280 nm; MDM2 4 μM, peptide 0–10 μM; 15 °C, pH 8.0 Tris-HCl, 250 mM NaCl, 0.5 mM TCEP; overnight equilibration; titration repeated twice; read-out: Kd from fluorescence titrations
Protocol: as §1

[3] = Far-UV CD of isolated peptides in aqueous solution (helicity); assay type: physicochemical; settings: 5 °C, 50 mM phosphate pH 6.8; for molar ellipticity at 222 nm, [Θ]222: far-UV CD; for % Helix in water ([Θ]222): from molar ellipticity at 222 nm assuming 100% helix = −31500 deg cm^2 dmol^−1
Protocol: Spectra were acquired on a Jasco J815 spectropolarimeter (Jasco, Japan) interfaced with a Peltier unit. The instrument was periodically calibrated with (+) 10-camphorsulphonic acid. Far-UV measurements (in aqueous or TFE solutions) were performed in 0.1-cm-pathlength quartz cells (Hellma), with a response time of 2 s, a band width of 1 nm, data were collected every 0.2 nm, and a scan velocity of 50 nm/min (or 20 nm/min). […] In all peptides, two concentrations (10 μM and 70 μM) in aqueous solutions (50 mM sodium phosphate buffer, pH 6.8 […]) were used to determine whether either the shapes or the intensities of the spectra were concentration-dependent. […] In all cases (aqueous solution or TFE titrations), the corresponding blank solutions (containing only buffer, or buffer and the corresponding amount of TFE) were subtracted from the spectra.
(§2) For the TFE titrations, a peptide concentration of 40 μM was used. The samples were prepared the day before and left overnight at 5 °C to reach equilibrium. The experiments in aqueous solution were acquired at 5 °C, in 50 mM sodium phosphate buffer, pH 6.8. Raw ellipticity was converted to molar ellipiticity, [Θ], from which the percentage of helical populations was determined. Co-solvent concentrations were indicated in percentage of volume. […] Fitting of the titration curves, obtained by observation of the molar ellipticity at 222 nm as the TFE concentration was increased, was carried out with Kaleidagraph (Synergy software).

[4] = TFE titrations monitored by CD (helical population); assay type: physicochemical; settings: 5 °C, 50 mM phosphate pH 6.8, peptide 40 μM; for [TFE]1/2 (midpoint of TFE titration) / m (m-value of TFE titration): CD at 222 nm, two-state fit, ± fitting error; for % Helix in water (from ΔG in TFE titrations): from ΔG = [TFE]1/2 × m, for 1% values the error was 10%
Protocol: Unlike the above programs, which make assumptions about how the ellipticity signal relates to secondary structure content, a TFE titration allows the determination of helical content derived from the free-energy change for the equilibrium between folded (in TFE) and unfolded peptide, without any such assumptions.
as §2

[5] = molecular target: T1, human MDM2 (residues 2–125); assay: Isothermal titration calorimetry of p53-peptide binding to MDM2; settings: ITC, 15 °C, 50 mM Tris-HCl pH 8.0, 250 mM NaCl, 0.5 mM TCEP
Protocol: Protein concentration was determined from the absorbance of its seven Tyr residues.
Peptide binding to MDM2 was measured by using an Auto-iTC200 (Malvern Instruments, Malvern UK), as described[24],[37]. Data acquisition was carried out with a reference power of 10 µcal/s, initial delay of 60 s, spacing between injections of 150 s. In a typical ITC experiment, the p53 peptide was loaded into a 40 μl syringe and the protein was placed into the sample cell. The sequence of injections consisted of one 0.5 μl injection followed by 19 injections of 2 μl each. Control experiments loading peptide into buffer solution were also carried out for each peptide. Experiments were performed with freshly prepared protein solutions, at 15 °C in the same buffer used in fluorescence experiments. ITC experiments were performed at 15 °C rather than 25 °C to avoid aggregation of MDM2.
Each peak was integrated using NITPIC software. The areas of the peaks are related to the heat exchanged upon binding and/or dilution. This heat was corrected of the heat of dilution (i.e., the average heat of the injections after the equilibrium has reached the saturation). Titration with each peptide was repeated twice.

[6] = molecular target: T2, human MDM2 (residues 2–125) (human, UniProt Q00987 2-125); assay: ITC; p53 peptide in the syringe titrated into MDM2 in the cell; Auto-iTC200; 15 °C; 50 mM Tris-HCl pH 8.0, 250 mM NaCl, 0.5 mM TCEP; settings: both partners purified
T2 construct: MDM2 (murine double minute 2), human, N-terminal domain, residues 2-125; no tag is named; also called N-terminal domain of MDM2

[7] = molecular target: T2, human MDM2 (residues 2–125); assay: other fluorescence titration; peptide 0–10 μM added to 4 μM MDM2; fluorescence at 315 nm after excitation at 280 nm; 15 °C; 50 mM Tris-HCl pH 8.0, 250 mM NaCl, 0.5 mM TCEP; samples left overnight at 5 °C; settings: both partners purified
[8] = molecular target: T2, human MDM2 (residues 2–125); assay: stopped-flow fluorescence; pseudo-first order, peptide 0.125 μM final, MDM2 in excess (typically 1 μM to 3 μM); Trp23 fluorescence, excitation 280 nm, 315 nm cut-off; 15 °C; 50 mM Tris-HCl pH 8.0, 250 mM NaCl, 0.5 mM TCEP; Kd as koff/kon assuming a two-state reaction; settings: both partners purified

T1 sequence (Q00987 2-125): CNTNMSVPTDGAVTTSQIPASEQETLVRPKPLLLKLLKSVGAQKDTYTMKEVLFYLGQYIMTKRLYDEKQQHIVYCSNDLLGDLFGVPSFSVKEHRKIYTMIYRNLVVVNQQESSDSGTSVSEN
T2 sequence (Q00987 2-125): as above

Molecule: CC(=O)N[C@@H](CCC(=O)O)C(=O)N[C@H](C(=O)N[C@@H](Cc1ccccc1)C(=O)N[C@@H](CCC(=O)O)C(=O)N[C@@H](CC(=O)O)C(=O)N[C@@H](CC(C)C)C(=O)N[C@@H](Cc1c[nH]c2ccccc12)C(=O)N[C@@H](CCCCN)C(=O)N[C@@H](CC(C)C)C(=O)N[C@@H](CC(C)C)C(=O)N1CCC[C@H]1C(=O)N[C@@H](CCC(=O)O)C(=O)N[C@@H](CC(N)=O)C(N)=O)[C@@H](C)O [P53-E20]
- kon [1]: 9e+06 ± 2e+06 M⁻¹ s⁻¹
- koff [1]: 8 ± 5 s⁻¹
- Kd [2]: 0.7 ± 0.1 µM
- molar ellipticity at 222 nm, [Θ]222 [3]: −2911 deg cm^2 dmol^−1
- % Helix in water ([Θ]222) [3]: 9.2%
- [TFE]1/2 (midpoint of TFE titration) [4]: 25 ± 2 % (vol:vol)
- m (m-value of TFE titration) [4]: 231 ± 141 cal mol^−1(%)^−1
- % Helix in water (from ΔG in TFE titrations) [4]: 1%

Molecule: CC(=O)N[C@@H](CCC(=O)O)C(=O)N[C@@H](CC(=O)O)C(=O)N[C@@H](Cc1ccccc1)C(=O)N[C@@H](CO)C(=O)N[C@@H](CC(=O)O)C(=O)N[C@@H](CC(C)C)C(=O)N[C@@H](Cc1c[nH]c2ccccc12)C(=O)N[C@@H](CCCCN)C(=O)N[C@@H](CC(C)C)C(=O)N[C@@H](CC(C)C)C(=O)N1CCC[C@H]1C(=O)N[C@@H](CCC(=O)O)C(=O)N[C@@H](CC(N)=O)C(N)=O [P53-D18]
- Kd ([1]; ratio of kinetic rate constants, assuming two-state binding without intermediates, read-out: Kd (koff/kon)): 5 ± 3 µM
- kon [1]: 5e+06 ± 3e+06 M⁻¹ s⁻¹
- koff [1]: 23 ± 9 s⁻¹
- TΔS of binding [5]: -12.19 kcal/mol
- Kd ([5]; peptide titrated into MDM2, read-out: Log KA (converted)): 19.1 µM
- ΔH of binding ([5]; peptide titrated into MDM2, repeated twice): -18.39 kcal/mol
- molar ellipticity at 222 nm, [Θ]222 [3]: −3313 deg cm^2 dmol^−1
- % Helix in water ([Θ]222) [3]: 10.5%
- [TFE]1/2 (midpoint of TFE titration) [4]: 12.0 ± 0.7 % (vol:vol)
- m (m-value of TFE titration) [4]: 383 ± 142 cal mol^−1(%)^−1
- % Helix in water (from ΔG in TFE titrations) [4]: 1%

Molecule: Ac-ETFDDLWKLLPEN-NH2 [Ac-ETFdDLWKLLPEN-NH2 (P53-D20)]
- Kd [6]: 5.7 µM
- Log KA [6]: 5.24
- dH [6]: -10.2 kcal/mol
- Kd [7]: 1.5 ± 0.4 µM

Molecule: Ac-EEFSDLWKLLPEN-NH2 [Ac-EeFSDLWKLLPEN-NH2 (P53-E18)]
- Kd [6]: 7.1 µM
- Log KA [6]: 5.15
- dH [6]: -7.02 kcal/mol
- Kd [7]: 2.3 ± 0.6 µM
- Kd [8]: 4.2 ± 0.9 µM

Molecule: Ac-ETFEDLWKLLPEN-NH2 [Ac-ETFeDLWKLLPEN-NH2 (P53-E20)]
- Kd [8]: 0.9 ± 0.6 µM

B1: Ac-EeFdDLWKLLPEN-NH2 (P53-E18-D20) (peptide)
peptide: Ac-EEFDDLWKLLPEN-NH2
notes: also called double phosphomimetic mutant
- Kd [6]: 20.4 µM
- Log KA [6]: 4.69
- dH [6]: -8.8 kcal/mol
- Kd [7]: 8.3 ± 4.9 µM
- Kd [8]: 4 ± 3 µM

Molecule: Ac-EEFEDLWKLLPEN-NH2 [Ac-EeFeDLWKLLPEN-NH2 (P53-E18-E20)]
- Kd [6]: 5 µM
- Log KA [6]: 5.3
- dH [6]: -9.12 kcal/mol
- Kd [8]: 6 ± 2 µM
